{"source": "patent US20080255224A1", "about": "“PHARM[…] OF PSORIASIS” (priority 2007, published 2008)", "key": {"[1]": {"test_system": "epidermal keratinocyte differentiation", "conditions": "cited from earlier work"}, "[2]": {"test_system": "keratinocyte proliferation", "conditions": "in vitro; cited from earlier work"}, "[3]": {"conditions": "prior use for nausea and vomiting of chemotherapy; cited from earlier work"}, "psoriasis": {"test_system": "psoriasis", "test": "Oral nabilone in a patient suffering from psoriasis, inpatient, unblinded", "format": "in vivo, human", "description": "A patient suffering from psoriasis was treated with oral nabilone on an inpatient, unblinded basis. The patient suffered from psoriasis which had not responded well to prior drug treatments. To assess whether nabilone was beneficial in alleviating symptoms, nabilone at a dose of 1 mg was added to all other anti-inflammatory and anti-psoriatic medications. The results were dramatic. The regimen administered was a 0.5 mg dosage twice daily for four days, and then 1 mg twice daily for five days and eventually 1 mg daily was administered to the patient. Itch which had been intolerable and incessant abolished with the 1st dose. By the 10th day of therapy the skin redness had disappeared."}}, "data": [{"smiles": "CCCCC/C=C\\C/C=C\\C/C=C\\C/C=C\\CCCC(=O)NCCO", "note": "[Anadamide]", "values": [{"measurement": "Effect on epidermal keratinocyte differentiation", "setting": "[1]", "result": "inhibits"}]}, {"smiles": "CCCCCCC(C)(C)c1cc(O)c2c(c1)OC(C)(C)[C@@H]1CC=C(CO)C[C@@H]21", "note": "[HU210]", "values": [{"measurement": "Inhibition of keratinocyte proliferation", "setting": "[2]", "result": "concentration-dependent response"}]}, {"smiles": "CCCn1c(C)c(C(=O)c2cccc3ccccc23)c2ccccc21", "note": "[JWH015]", "values": [{"measurement": "Inhibition of keratinocyte proliferation", "setting": "[2]", "result": "only partial inhibition"}]}, {"smiles": "COc1ccc2c(c1)c(CC(=O)N1CCOCC1)c(C)n2C(=O)c1ccc(Cl)cc1", "note": "[BML 190]", "values": [{"measurement": "Inhibition of keratinocyte proliferation", "setting": "[2]", "result": "only partial inhibition"}]}, {"smiles": "CCCCCCC(C)(C)c1cc(O)c2c(c1)OC(C)(C)C1CCC(=O)CC21", "note": "(centres unmarked) [nabilone]", "values": [{"measurement": "Immunosuppressive potential", "setting": "[3]", "result": "does not show immunosuppressive potential"}, {"measurement": "Tolerability", "setting": "[3]", "result": "well tolerated"}, {"measurement": "Itch", "setting": "psoriasis; oral nabilone added to all other anti-inflammatory and anti-psoriatic medications, with the 1st dose (0.5 mg)", "result": "abolished"}, {"measurement": "Skin redness", "setting": "psoriasis; oral, by the 10th day of therapy (0.5 mg twice daily for four days, then 1 mg twice daily for five days, then 1 mg daily)", "result": "disappeared"}]}]}
